{
  "source": "patent US20070185013A1",
  "about": "“Use of chk1 inhibitors to control cell proliferation” (ICOS CORPORATION, priority 2003, published 2007)",
  "key": {"HT29 tumors": {"tested_on": "HT29 tumors", "test": "H3-P mitotic index assay in HT29 tumors", "type": "in vivo, mice", "conditions": "for mitotic index (H3-P): 100 mg/kg gemcitabine i.p.", "experimental": "Chem. 271:13197-201. 1996; Goto et al., J Biol Chem. 274:25543-9, 1999). The assay protocol was as follows. Tumors from rodents treated or untreated with Chk1 activator (in the present study, chemotherapy agent) and/or Chk1 inhibitor, were excised and paraffin embedded. The tumors are cut into 6 micron thick slices and mounted on glass slides. […] The slides are then heated to 95° C. in 10 mM sodium citrate for 10 minutes followed by a 20 minute cooling step. The slides are blocked for 30 minutes with Block buffer (20% normal human serum and 2% bovine serum albumin in phosphate buffered saline containing 0.05% Triton X-100 (PBST)). The anti-phospho histone H3 antibody (Upstate Biotech, Cat. #06-570) is diluted 1:200 in the Block buffer and incubated with the slides for one hour. The slides are washed 3 times 5 minutes in PBST. The secondary antibody, donkey anti-rabbit rhodamine (Jackson, cat #711-295-152) was added for 30 minutes. The slides were then washed twice in PBST and […] of […] DAPI (Sigma) in PBS is added and allowed to stain for 30 minutes. The slides were then washed two more times in PBST and mounted with Vectashield (Vector, cat # H-1400). Slides were viewed using fluorescence microscopy. The percentage of cells stained with H3-P antibody relative to total (DAPI stained) cells were quantified using Metamorph software (Universal Imaging Corporation, Version 4.6). […] Tumors from these animals were resected, paraffin embedded and stained with an antibody to H3-P followed by a counter-stained with DAPI. The percentage of mitotic cells (positive to H3-P) was quantified at each time point. […] To determine whether checkpoint abrogation by selective Chk1 inhibitor was dose-dependent, HT29 tumor-bearing mice were pretreated with gemcitabine and 32 hours later dosed with increasing doses of selective Chk1 inhibitor. After 18 hours, tumors were harvested and stained for H3-P as described above. […] The response is saturated at 400 mg/kg."}, "H460 tumor cells": {"tested_on": "H460 tumor cells", "test": "H460 non-small cell lung tumor xenograft model, tumor volume (Example 1)", "type": "in vivo, mice", "conditions": "gemcitabine alone, 160 mg/kg q3d×3", "text": "A method of the invention provided an improved antiproliferative effect over co-administration in an art-recognized […] tumor model. In the experiment, gemcitabine was used as the Chk1 activator and a diaryl urea compound according to Keegan et al., PCT/US02/06452, was used as the selective Chk1 inhibitor. (The same Chk1 inhibitor was used in the examples 2-11.) The target phase of gemcitabine is the S phase of the cell cycle. A non-small cell lung tumor xenograft tumor model, H460, was the art-recognized […] tumor model.\nNude mice were engrafted with H460 tumor cells and allowed to grow to an average of 75 mm3. Tumor-bearing mice were then treated with vehicle, gemcitabine or gemcitabine plus 400 mg/kg selective Chk1 inhibitor. The gemcitabine was administered at a dose of 160 mg/kg q3d×3 either simultaneously with the Chk1 inhibitor (co-administration) or, according to the invention, 18 hours prior to the Chk1 inhibitor to allow for S phase synchronization.\nTumors were measured every 2-3 days. On day 10, the median tumor volume for the vehicle group was 10 times the starting volume, while the gemcitabine alone group was four times the starting volume. The tumor volume for the gemcitabine plus Chk1 inhibitor co-administration group was also four times the starting volume. […]"}},
  "data": [
    {"smiles": "Nc1ccn([C@@H]2O[C@H](CO)[C@@H](O)C2(F)F)c(=O)n1", "note": "[gemcitabine]", "values": [
      {"measurement": "mitotic cells (H3-P positive)", "setting": "HT29 tumors; 100 mg/kg gemcitabine for 48 hours alone", "value": "approximately 4%"},
      {"measurement": "mitotic index (H3-P)", "setting": "HT29 tumors; 1-6 hr time points", "value": "approximately 3"},
      {"measurement": "mitotic index (H3-P)", "setting": "HT29 tumors; between 12 and 24 hr after administration", "value": "approximately 1.5"},
      {"measurement": "time of lowest H3-P staining", "setting": "HT29 tumors; HT29, treated with gemcitabine", "value": 48, "unit": "h"},
      {"measurement": "time of optimal S phase arrest post-gemcitabine treatment", "setting": "HT29 tumors; HT29 tumors, from H3-P and Rb-Pser795 staining", "value": "24 to 48", "unit": "h"},
      {"measurement": "median tumor volume on day 10", "setting": "H460 tumor cells", "value": "four"}
    ]}
  ]
}
